US10206394B2, “Herbicidal compounds” (Syngenta Participations AG, priority 2014, dated 2019)
Read-outs that look alike come from different tables or passages of the source.

Legend:
Assay in all cases: Glasshouse assay for herbicidal activity (pre- and post-emergence), percentage phytotoxicity
Format in all cases: in vivo
[1] = tested on: Alopecurus myosuroides (ALOMY); conditions: Alopecurus myosuroides
Summary of the method: (§1)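 Visually rated damage, 0–100%. PRE spray 1 d after sowing, scored 20 DAA; POST spray ~12 d, scored 15 DAA. Glasshouse at 65% humidity, 16 h day.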

Avena fatua (AVEFA) = conditions: Avena fatua
Summary of the method: as §1

[2] = tested on: Echinochloa crus-galli (ECHCG); conditions: Echinochloa crus-galli
Summary of the method: as §1

Lolium perenne (LOLPE) = conditions: Lolium perenne
Summary of the method: as §1

[3] = post-emergence, 360 h, Rate 250 g/ha, post-emergence, assessed visually 15 DAA, 100%=total damage, 0%=no damage, read-out: Post-emergence herbicidal activity (percentage phytotoxicity) ALOMY POST
[4] = pre-emergence, 480 h, Rate 250 g/ha, pre-emergence, assessed visually 20 DAA, 100%=total damage, 0%=no damage, read-out: Pre-emergence herbicidal activity (percentage phytotoxicity) ALOMY PRE
[5] = post-emergence, 360 h, Rate 250 g/ha, post-emergence, assessed visually 15 DAA, 100%=total damage, 0%=no damage, read-out: Post-emergence herbicidal activity (percentage phytotoxicity) AVEFA POST
[6] = pre-emergence, 480 h, Rate 250 g/ha, pre-emergence, assessed visually 20 DAA, 100%=total damage, 0%=no damage, read-out: Pre-emergence herbicidal activity (percentage phytotoxicity) AVEFA PRE
[7] = post-emergence, 360 h, Rate 250 g/ha, post-emergence, assessed visually 15 DAA, 100%=total damage, 0%=no damage, read-out: Post-emergence herbicidal activity (percentage phytotoxicity) ECHCG POST
[8] = pre-emergence, 480 h, Rate 250 g/ha, pre-emergence, assessed visually 20 DAA, 100%=total damage, 0%=no damage, read-out: Pre-emergence herbicidal activity (percentage phytotoxicity) ECHCG PRE
[9] = post-emergence, 360 h, Rate 250 g/ha, post-emergence, assessed visually 15 DAA, 100%=total damage, 0%=no damage, read-out: Post-emergence herbicidal activity (percentage phytotoxicity) LOLPE POST
[10] = pre-emergence, 480 h, Rate 250 g/ha, pre-emergence, assessed visually 20 DAA, 100%=total damage, 0%=no damage, read-out: Pre-emergence herbicidal activity (percentage phytotoxicity) LOLPE PRE
[11] = post-emergence, 360 h, 250 g/ha, post-emergence, 15 DAA, visual assessment (100%=total damage, 0%=no damage), read-out: Post-emergence herbicidal activity (percentage phytotoxicity) ALOMY POST
[12] = pre-emergence, 480 h, 250 g/ha, pre-emergence, 20 DAA, visual assessment (100%=total damage, 0%=no damage), read-out: Pre-emergence herbicidal activity (percentage phytotoxicity) ALOMY PRE
[13] = post-emergence, 360 h, 250 g/ha, post-emergence, 15 DAA, visual assessment (100%=total damage, 0%=no damage), read-out: Post-emergence herbicidal activity (percentage phytotoxicity) AVEFA POST
[14] = pre-emergence, 480 h, 250 g/ha, pre-emergence, 20 DAA, visual assessment (100%=total damage, 0%=no damage), read-out: Pre-emergence herbicidal activity (percentage phytotoxicity) AVEFA PRE
[15] = post-emergence, 360 h, 250 g/ha, post-emergence, 15 DAA, visual assessment (100%=total damage, 0%=no damage), read-out: Post-emergence herbicidal activity (percentage phytotoxicity) ECHCG POST
[16] = pre-emergence, 480 h, 250 g/ha, pre-emergence, 20 DAA, visual assessment (100%=total damage, 0%=no damage), read-out: Pre-emergence herbicidal activity (percentage phytotoxicity) ECHCG PRE
[17] = post-emergence, 360 h, 250 g/ha, post-emergence, 15 DAA, visual assessment (100%=total damage, 0%=no damage), read-out: Post-emergence herbicidal activity (percentage phytotoxicity) LOLPE POST
[18] = pre-emergence, 480 h, 250 g/ha, pre-emergence, 20 DAA, visual assessment (100%=total damage, 0%=no damage), read-out: Pre-emergence herbicidal activity (percentage phytotoxicity) LOLPE PRE
[19] = post-emergence, 360 h, POST-emergence, rate 250 g/ha, visual score 15 DAA (100%=total damage, 0%=no damage), read-out: Post-emergence herbicidal activity (percentage phytotoxicity) ALOMY POST
[20] = pre-emergence, 480 h, PRE-emergence, rate 250 g/ha, visual score 20 DAA (100%=total damage, 0%=no damage), read-out: Pre-emergence herbicidal activity (percentage phytotoxicity) ALOMY PRE
[21] = post-emergence, 360 h, POST-emergence, rate 250 g/ha, visual score 15 DAA (100%=total damage, 0%=no damage), read-out: Post-emergence herbicidal activity (percentage phytotoxicity) AVEFA POST
[22] = pre-emergence, 480 h, PRE-emergence, rate 250 g/ha, visual score 20 DAA (100%=total damage, 0%=no damage), read-out: Pre-emergence herbicidal activity (percentage phytotoxicity) AVEFA PRE
[23] = post-emergence, 360 h, POST-emergence, rate 250 g/ha, visual score 15 DAA (100%=total damage, 0%=no damage), read-out: Post-emergence herbicidal activity (percentage phytotoxicity) ECHCG POST
[24] = pre-emergence, 480 h, PRE-emergence, rate 250 g/ha, visual score 20 DAA (100%=total damage, 0%=no damage), read-out: Pre-emergence herbicidal activity (percentage phytotoxicity) ECHCG PRE
[25] = post-emergence, 360 h, POST-emergence, rate 250 g/ha, visual score 15 DAA (100%=total damage, 0%=no damage), read-out: Post-emergence herbicidal activity (percentage phytotoxicity) LOLPE POST
[26] = pre-emergence, 480 h, PRE-emergence, rate 250 g/ha, visual score 20 DAA (100%=total damage, 0%=no damage), read-out: Pre-emergence herbicidal activity (percentage phytotoxicity) LOLPE PRE
[27] = post-emergence, 360 h, Rate 250 g/ha, post-emergence, visual assessment 15 DAA, 100%=total damage, 0%=no damage, read-out: Post-emergence herbicidal activity (percentage phytotoxicity) ALOMY POST
[28] = pre-emergence, 480 h, Rate 250 g/ha, pre-emergence, visual assessment 20 DAA, 100%=total damage, 0%=no damage, read-out: Pre-emergence herbicidal activity (percentage phytotoxicity) ALOMY PRE
[29] = post-emergence, 360 h, Rate 250 g/ha, post-emergence, visual assessment 15 DAA, 100%=total damage, 0%=no damage, read-out: Post-emergence herbicidal activity (percentage phytotoxicity) AVEFA POST
[30] = pre-emergence, 480 h, Rate 250 g/ha, pre-emergence, visual assessment 20 DAA, 100%=total damage, 0%=no damage, read-out: Pre-emergence herbicidal activity (percentage phytotoxicity) AVEFA PRE
[31] = post-emergence, 360 h, Rate 250 g/ha, post-emergence, visual assessment 15 DAA, 100%=total damage, 0%=no damage, read-out: Post-emergence herbicidal activity (percentage phytotoxicity) ECHCG POST
[32] = pre-emergence, 480 h, Rate 250 g/ha, pre-emergence, visual assessment 20 DAA, 100%=total damage, 0%=no damage, read-out: Pre-emergence herbicidal activity (percentage phytotoxicity) ECHCG PRE
[33] = post-emergence, 360 h, Rate 250 g/ha, post-emergence, visual assessment 15 DAA, 100%=total damage, 0%=no damage, read-out: Post-emergence herbicidal activity (percentage phytotoxicity) LOLPE POST
[34] = pre-emergence, 480 h, Rate 250 g/ha, pre-emergence, visual assessment 20 DAA, 100%=total damage, 0%=no damage, read-out: Pre-emergence herbicidal activity (percentage phytotoxicity) LOLPE PRE

SMILES | pest or weed control at 250 g/ha [1, 3] [%] | pest or weed control at 250 g/ha [1, 4] [%] | pest or weed control at 250 g/ha (Avena fatua (AVEFA); [5]) [%] | pest or weed control at 250 g/ha (Avena fatua (AVEFA); [6]) [%] | pest or weed control at 250 g/ha [2, 7] [%] | pest or weed control at 250 g/ha [2, 8] [%] | pest or weed control at 250 g/ha (Lolium perenne (LOLPE); [9]) [%] | pest or weed control at 250 g/ha (Lolium perenne (LOLPE); [10]) [%] | pest or weed control at 250 g/ha [1, 19] [%] | pest or weed control at 250 g/ha [1, 20] [%] | pest or weed control at 250 g/ha (Avena fatua (AVEFA); [21]) [%] | pest or weed control at 250 g/ha (Avena fatua (AVEFA); [22]) [%] | pest or weed control at 250 g/ha [2, 23] [%] | pest or weed control at 250 g/ha [2, 24] [%] | pest or weed control at 250 g/ha (Lolium perenne (LOLPE); [25]) [%] | pest or weed control at 250 g/ha (Lolium perenne (LOLPE); [26]) [%] | further results
C#Cc1cc(C)c(C2C(=O)CC(CC(=O)NC(C)CC)C2=O)c(C)c1 (stereo not drawn) [Compound A9, 2-[3-(4-ethynyl-2,6-dimethyl-phenyl)-2,4-dioxo-cyclopentyl]-N-sec-butyl-acetamide] | 80 | 90 | 100 | 90 | 90 | 100 | 80 | 90 |  |  |  |  |  |  |  |  | 
C=C(F)CNC(=O)CC1CC(=O)C(c2c(C)cc(C)cc2C)C1=O (stereo not drawn) [Compound B92] |  |  |  |  |  |  |  |  |  |  |  |  |  |  |  |  | pest or weed control at 250 g/ha [1, 11]: 90%; pest or weed control at 250 g/ha [1, 12]: 90%; pest or weed control at 250 g/ha (Avena fatua (AVEFA); [13]): 80%; pest or weed control at 250 g/ha (Avena fatua (AVEFA); [14]): 30%; pest or weed control at 250 g/ha [2, 15]: 80%; pest or weed control at 250 g/ha [2, 16]: 90%; pest or weed control at 250 g/ha (Lolium perenne (LOLPE); [17]): 90%; pest or weed control at 250 g/ha (Lolium perenne (LOLPE); [18]): 100%
CCc1cc(-n2cc(Cl)cn2)cc(C)c1C1C(=O)CC(CC(=O)NC(C)C)C1=O (stereo not drawn) [Compound B235] |  |  |  |  |  |  |  |  | 100 | 100 | 100 | 100 | 100 | 100 | 100 | 100 | 
Cc1cc(-c2ncc(F)cc2F)cc(C)c1C1C(=O)CC(CC(=O)NCc2ccc(C#N)cn2)C1=O (stereo not drawn) [Compound B202] |  |  |  |  |  |  |  |  | 90 | 80 | 80 | 70 | 90 | 70 | 70 | 60 | 
C/C=C/c1cc(C)c(C2C(=O)CC(CC(=O)N(C)C(C)(C)C)C2=O)c(CC)c1 (stereo not drawn) [Compound B274] |  |  |  |  |  |  |  |  | 100 | 70 | 100 | 50 | 100 | 70 | 90 | 70 | 
Cc1cc(-c2ncc(Cl)cn2)cc(C)c1C1C(=O)CC(CC(=O)N(C)C(C)(C)C)C1=O (stereo not drawn) [Compound B348] |  |  |  |  |  |  |  |  |  |  |  |  |  |  |  |  | pest or weed control at 250 g/ha [1, 27]: 100%; pest or weed control at 250 g/ha [1, 28]: 80%; pest or weed control at 250 g/ha (Avena fatua (AVEFA); [29]): 100%; pest or weed control at 250 g/ha (Avena fatua (AVEFA); [30]): 80%; pest or weed control at 250 g/ha [2, 31]: 100%; pest or weed control at 250 g/ha [2, 32]: 100%; pest or weed control at 250 g/ha (Lolium perenne (LOLPE); [33]): 100%; pest or weed control at 250 g/ha (Lolium perenne (LOLPE); [34]): 90%
C=C(C)CNC(=O)CC1CC(=O)C(c2c(C)cc(-c3ncc(F)cc3F)cc2C)C1=O (stereo not drawn) [Compound B200] |  |  |  |  |  |  |  |  | 100 | 100 | 100 | 90 | 100 | 100 | 100 | 100 | 
COc1ccc(NC(=O)CC2CC(=O)C(c3c(C)cc(C)cc3C)C2=O)cc1OC (stereo not drawn) [Compound B2] |  |  |  |  |  |  |  |  |  |  |  |  |  |  |  |  | pest or weed control at 250 g/ha [1, 11]: 40%; pest or weed control at 250 g/ha [1, 12]: 40%; pest or weed control at 250 g/ha (Avena fatua (AVEFA); [13]): 30%; pest or weed control at 250 g/ha (Avena fatua (AVEFA); [14]): 60%; pest or weed control at 250 g/ha [2, 15]: 10%; pest or weed control at 250 g/ha [2, 16]: 80%; pest or weed control at 250 g/ha (Lolium perenne (LOLPE); [17]): 30%; pest or weed control at 250 g/ha (Lolium perenne (LOLPE); [18]): 80%
CC#Cc1cc(C)c(C2C(=O)CC(CC(=O)NC(C)(C)C)C2=O)c(CC)c1 (stereo not drawn) [Compound A48] | 100 | 100 | 100 | 90 | 100 | 100 | 100 | 100 |  |  |  |  |  |  |  |  | 
Cc1cc(C)c(C2C(=O)CC(C(C)C(=O)NCc3cccc(C(F)(F)F)c3)C2=O)c(C)c1 (stereo not drawn) [Compound A166] | 40 | 40 | 70 | 20 | 90 | 70 | 70 | 70 |  |  |  |  |  |  |  |  | 
Cc1cc(C)c(C2=C(OC(=O)C(C)(C)C)CC(CC(N)=O)C2=O)c(C)c1 (stereo not drawn) [Compound P11] |  |  |  |  |  |  |  |  |  |  |  |  |  |  |  |  | pest or weed control at 250 g/ha [1, 27]: 80%; pest or weed control at 250 g/ha [1, 28]: 70%; pest or weed control at 250 g/ha (Avena fatua (AVEFA); [29]): 90%; pest or weed control at 250 g/ha (Avena fatua (AVEFA); [30]): 30%; pest or weed control at 250 g/ha [2, 31]: 90%; pest or weed control at 250 g/ha [2, 32]: 90%; pest or weed control at 250 g/ha (Lolium perenne (LOLPE); [33]): 90%; pest or weed control at 250 g/ha (Lolium perenne (LOLPE); [34]): 80%
CC#Cc1cc(C)c(C2C(=O)CC(CC(=O)NC(C)C)C2=O)c(CC)c1 (stereo not drawn) [Compound A54] | 100 | 100 | 100 | 100 | 100 | 100 | 100 | 100 |  |  |  |  |  |  |  |  | 
